Measured values as given in US7601685B2, “Growth factor modified protein matrices for tissue engineering” (Eidgenossische Technische Hochschule Zurich, priority 1998, dated 2009).

Legend:
[1] = system: day 8 chick embryonic dorsal root ganglia; test: Dorsal root ganglia neurite extension in fibrin gels with peptide/heparin-bound growth factor; assay type: cell-based; settings: DRG
Source text: FIG. 2 is a graph of the effect of matrix bound bFGF on DRG neurite extension at 48 hr. Mean values and standard deviation of the mean are shown. (* denotes p<0.05 compared with unmodified fibrin.)
In order to evaluate this approach to release of heparin-binding growth factors from fibrin cell in-growth matrices that also comprise a covalently linked bi-domain peptide, one domain of which is a factor XIIIa substrate and one domain of which is a heparin-binding domain based on antithrombin III, dorsal root ganglia were cultured three-dimensionally within fibrin gels under a variety of conditions, as shown in the below.
Cross-linking Protocol for Use of Heparin-Binding Peptides: • 1) Dialyze fibrinogen (8 mg/ml) versus 4 L of Tris buffered saline (33 mM Tris), pH 7.4 for 24 hours. • 2) Sterile filter fibrinogen using a 0.2 μm syringe filter. • 3) Make the following peptide solutions:
• 4) Make thrombin solution: 100 units in 5 ml TBS. • 5) Add 1.4 ml of fibrinogen to each peptide solution. • 6) Make gels: Add 20 μl of TBS+50 mM CaCl2, 40 μl of thrombin solution (20 units/ml), and 340 μl of peptide solution+fibrinogen. (above solutions make 6 gels). • 7) Incubate at 37° C. for 1 hr. • 8) Wash 5 times in 24 hours. Use 1 ml of TBS the first 4 times and neuronal media the last time. • 9) Dissect day 8 chick embryonic dorsal root ganglia. • 10) Place one ganglia in each gel and place at 37° C. for 1 hr. • 11) Add 1 ml of neuronal media to each gel. • 12) Change media after 24 hours.

sheep drill defect = test: Sheep bone drill defect healing; assay type: in vivo; settings: healing time 8 weeks
Protocol: To form the fibrin gel, the dilute precursors were mixed together by injecting the fibrinogen into the tube containing the thrombin. In case of the sheep drill defect (as described below) this mixture was then injected immediately into a drill defect created in sheep cancellous bone, where a fibrin gel formed within 1-5 minutes. In the first series of animal experiments, the efficacy of a fusion protein containing PTH1-34 as the bioactive factor ([…], SEQ ID NO:38) in healing cortical bone was tested in a small animal model. The sequence, YKNR, makes the linkage plasmin degradable (“TG-pl-PTH1-34). The TG-pl-PTH1-34 was made by chemical synthesis. […] The purity of the TG-pl-PTH1-34 was determined to be 95%.
TG-pl-PTH1-34 was tested as well in a long bone defect model to test the effect of this hormone on healing bone. In the sheep drill defect model, 8 mm cylindrically drill defects that were approximately 15 mm deep were placed in both the proximal and distal region of the femur and humerus bones. Since the defect was placed in the epiphysis of the long bones, the defect was surrounded by trabecular bone with a thin layer of cortical bone at the rim of the defect. These defects were then filled with an in situ polymerizing fibrin (about 750 μL) that contained various doses of TG-pl-PTH1-34. or TGPTH1-34. Animals were allowed to heal for eight weeks and then were sacrificed. The defect was analyzed with μCT and histology.
For this series of experiments, three types of compositions were tested. First, TG-pl-PTH1-34 was tested over a large concentration range. […] Thus, TGPTH1-34 could only be liberated by degradation of the fibrin matrix itself. TGPTH1-34 was produced and purified similar to TG-pl-PTH1-34. Purity was determined to be 95%. TGPTH1-34 was tested at several concentrations that were similar to the concentrations of TG-pl-PTH1-34 to compare efficacy. Finally, matrices were made in the presence of granular material, with either TGPTH1-34 or TG-pl-PTH1-34. The granular material was a standard tricalcium phosphate/hydroxyapatite mixture which was embedded in the matrix during gelation. The effect of adding these granules on the efficacy of PTH1-34 was explored. As a control, unmodified fibrin was tested.
The fibrin gel for all experiments was made as described in Example 7. The sheep bone defects were prepared as described in Example 7. The defects were filled with 750 μL of fibrin matrix alone (control) or with TG-pl-PDGFAB, TG-pl-IGF1 or TG-pl-BMP2. The sheep were allowed to heal for eight weeks and were then sacrificed. The explanted defect area was examined with μCT to evaluate the degree of new bone formation.

[2] = system: critical size rat cranial defect; test: Rat critical size cranial defect healing; assay type: in vivo; settings: for Healing (% defect filled with bone): Time 63 Days
chick DRGs = test: Neurite extension of DRGs in fibrin matrices with immobilized β-NGF fusion proteins; assay type: cell-based
Source text: FIG. 3 is a graph of the effect of immobilized β-NGF fusion proteins on DRG neurite extension within fibrin matrices. Mean values and standard error of the mean are shown. ▪ denotes native NGF. ♦ denotes TG-P-NGF. ● denotes TG-Pi-NGF. * denotes p<0.0001 versus unmodified fibrin with NGF in the culture medium.
To determine the ability of covalently immobilized β-NGF fusion protein to be delivered in a controlled manner, β-NGF fusion proteins were incorporated into fibrin matrices during polymerization, and the ability of these matrices to enhance neurite extension in vitro was assayed using chick DRGs. […] A dose response effect for TG-P-NGF fusion protein was observed, with an optimal dose attained when 1-5 μg/mL of β-NGF fusion protein was present in the polymerization mixture. […] Despite the lower activity of the β-NGF fusion proteins in the PC12 cell activity assay, when the plasmin degradable β-NGF fusion protein was covalently coupled to fibrin, it promoted greater levels of neurite extension than the same dose of native NGF in the culture medium.

[3] = system: chronic leg ulcers of the venous stasis origins; test: Chronic wound healing on skin in human patients; assay type: in vivo
Protocol: TG-pl-PDGF AB as described in Example 7 was incorporated into fibrin gels at 33 μg/mL gel and applied topically to patients with chronic leg ulcers of the venous stasis origins (at the Dermatology Klinik of the University Hospital Zürich.)
The fibrin gels were made from Baxter TISSUCOL® kits (Baxter AG, CH 8604 Volketswil) by diluting the fibrinogen component with Citrate-Glycine buffer (pH 7.3) and diluting the thrombin component with 40 mM Calcium chloride-glycine buffer (pH 7.0). The final concentration of fibrinogen in the applied fibrin gel was about 12.5 mg fibrinogen/mL gel. The thrombin concentration was varied to improve handling of the gels. The final concentration of thrombin in the applied fibrin gel was about 4 to 50 U/mL. TG-pl-PDGF AB was added to the diluted fibrinogen component at 66 μg/mL for a total of 33 μg/mL gel concentration. The diluted fibrinogen and thrombin components were packed in separate sterile syringes at the same volume and deep frozen at −20° C. until use.
The gels were applied via a dual syringe system as provided in the TISSUCOL® kit from Baxter. Briefly, each syringe contained either diluted fibrinogen or diluted thrombin. The two syringes were connected to an applicator set and joined by a tip with a blunt cannula. To form a gel, both components were pushed out of the syringes simultaneously, making a 1:1 mixture fibrin gel directly on the ulcer area. Ulcers were covered with a thin sheath of gel, which was allowed to dry for 2 minutes before standard dressing and compression bandaging was applied.

fibrin gels = fibrin gels (Homo sapiens, UniProt P02671+P02675+P02679); settings: cross-linked during polymerization; gels degraded with plasmin; n=10
Chain of fibrin gels (P02671 20-644 isoform P02671-2 limits assumed): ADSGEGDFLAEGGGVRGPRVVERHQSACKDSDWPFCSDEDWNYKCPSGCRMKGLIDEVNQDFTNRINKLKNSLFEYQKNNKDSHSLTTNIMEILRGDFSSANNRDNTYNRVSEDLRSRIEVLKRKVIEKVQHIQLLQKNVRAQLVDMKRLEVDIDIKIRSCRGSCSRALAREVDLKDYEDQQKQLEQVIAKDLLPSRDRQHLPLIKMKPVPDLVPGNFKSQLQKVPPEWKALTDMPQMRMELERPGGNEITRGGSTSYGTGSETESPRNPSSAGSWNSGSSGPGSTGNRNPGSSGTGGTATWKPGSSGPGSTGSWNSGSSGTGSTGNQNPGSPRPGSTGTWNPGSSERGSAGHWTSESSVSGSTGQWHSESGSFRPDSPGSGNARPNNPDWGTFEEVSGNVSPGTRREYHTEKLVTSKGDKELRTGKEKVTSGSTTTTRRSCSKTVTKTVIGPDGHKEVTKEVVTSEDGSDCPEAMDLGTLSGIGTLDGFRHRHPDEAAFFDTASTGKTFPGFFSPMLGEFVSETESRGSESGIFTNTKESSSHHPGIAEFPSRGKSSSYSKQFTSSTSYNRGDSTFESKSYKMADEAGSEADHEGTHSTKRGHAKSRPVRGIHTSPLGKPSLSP
Chain of fibrin gels (P02675 45-491 limits assumed): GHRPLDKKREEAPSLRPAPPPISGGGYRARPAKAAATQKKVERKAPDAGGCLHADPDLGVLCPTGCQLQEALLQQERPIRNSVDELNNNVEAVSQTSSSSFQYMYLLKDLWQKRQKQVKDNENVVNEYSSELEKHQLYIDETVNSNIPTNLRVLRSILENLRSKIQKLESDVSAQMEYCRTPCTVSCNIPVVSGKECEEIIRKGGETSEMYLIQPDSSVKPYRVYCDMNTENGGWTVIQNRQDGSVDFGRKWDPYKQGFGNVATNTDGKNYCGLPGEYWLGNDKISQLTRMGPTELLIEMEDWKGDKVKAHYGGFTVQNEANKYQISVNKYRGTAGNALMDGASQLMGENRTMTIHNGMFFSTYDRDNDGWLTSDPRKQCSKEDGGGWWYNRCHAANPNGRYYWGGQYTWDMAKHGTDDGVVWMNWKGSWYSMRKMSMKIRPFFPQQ
Chain of fibrin gels (P02679 27-437 isoform P02679-2 limits assumed): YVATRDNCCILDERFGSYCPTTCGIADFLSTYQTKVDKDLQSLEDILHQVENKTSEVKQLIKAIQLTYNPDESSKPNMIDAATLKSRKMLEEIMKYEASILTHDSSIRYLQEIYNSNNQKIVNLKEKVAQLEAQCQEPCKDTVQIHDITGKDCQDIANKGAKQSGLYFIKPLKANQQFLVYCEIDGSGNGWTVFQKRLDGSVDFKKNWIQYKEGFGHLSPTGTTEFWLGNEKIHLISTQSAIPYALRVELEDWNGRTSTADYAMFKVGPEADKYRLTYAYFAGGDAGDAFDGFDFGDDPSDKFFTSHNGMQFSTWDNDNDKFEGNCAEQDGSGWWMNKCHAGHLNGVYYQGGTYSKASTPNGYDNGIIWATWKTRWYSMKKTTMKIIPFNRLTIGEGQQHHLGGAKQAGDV
Protocol: Size exclusion chromatography was used to determine the amount of peptide cross-linked to fibrin gels using the previously developed incorporation method. A bi-domain peptide containing the heparin-binding domain from antithrombin III and a fluorescent label was incorporated into fibrin gels during polymerization. The free peptide was washed from the gels, and the fibrin network was degraded with plasmin. The degradation products were analyzed by high performance liquid chromatography (size exclusion chromatography) to determine the amount of peptide (by fluorescence) present per mole of fibrinogen (by UV absorbance).

[4] = Dose 400 μg/mL in fibrin matrix
[5] = Dose 1000 μg/mL in fibrin matrix
[6] = fusion protein covalently immobilized in fibrin matrix

bFGF: basic fibroblast growth factor, heparin-binding growth factor
effect on neurite extension ([1]; 1 μg/ml and 5 μg/ml of bound bFGF (peptide + heparin in fibrin), dose dependent, 48 hr): increased
effect on neurite outgrowth ([1]; bFGF added without peptide and heparin, gels washed, 48 hr): does not enhance neurite outgrowth

TG-pl-IGF1: IGF1 fusion protein with TG-pl-hook (SEQ ID NO:42)
Healing (% defect filled with bone) (sheep drill defect; Dose 67 μg/mL in fibrin matrix): 41.5%

NQEQVSPLSVSEIQLMHNLGKHLN SMERVEWLRKKLQDVHNF (NQEQVSPLSVSEIQLMHNLGKHLNSMERVEWLRKKLQDVHNF; Modified parathyroid hormone from Homo sapiens) [TGPTH1-34]
Healing (% defect filled with bone) (sheep drill defect; [4]): 40%
Healing (% defect filled with bone) (sheep drill defect; [5]): 65%

NQEQVSPLYKNRSVSEIQLMHNLGKHLNSMERVEWLRKKLQDVHNF (Modified parathyroid hormone from Homo sapiens) [TG-pl-PTH1-34]
level of healing ([2]; 3 week timepoint): very similar to that observed with a fibrin matrix alone
Healing (% defect filled with bone) ([2]; Dose 10 μg/ml in fibrin matrix): 43%
Healing (% defect filled with bone) ([2]; Dose 200 μg/ml in fibrin matrix): 50%
Healing (% defect filled with bone) ([2]; Dose 500 μg/ml in fibrin matrix): 62%
increase of healing response ([2]; high dose, 7 weeks, versus fibrin alone): 65%
Healing (% defect filled with bone) (sheep drill defect; Dose 50 μg/mL in fibrin matrix): 31.3%
Healing (% defect filled with bone) (sheep drill defect; Dose 100 μg/mL in fibrin matrix): 59.7%
Healing (% defect filled with bone) (sheep drill defect; [4]): 73%
Healing (% defect filled with bone) (sheep drill defect; [5]): 77%

VEGF
effect on neurite extension ([1]; 1.0 μg/ml bound VEGF): did not increase neurite extension

TG-P-NGF: β-NGF fusion protein with factor XIIIa substrate NQEQVSPL and functional plasmin substrate LIK/MKP (SEQ ID NO:24)
optimal dose of β-NGF fusion protein in the polymerization mixture for neurite extension (chick DRGs; dose response in fibrin matrices): 1 to 5 µg/mL
enhancement of neurite extension over unmodified fibrin with 10 ng/mL of native NGF in medium (chick DRGs; [6]): up to 50%
enhancement of neurite extension versus unmodified fibrin with no NGF present in the culture medium (chick DRGs; [6]): over 350%

TG-pl-PDGFAB: PDGF AB heterodimer with 21 amino acid TG-pl-hook on both N termini (SEQ ID NO:40 and 41)
healing response ([3]; 33 μg/mL fibrin gel, topical, all three patients): enhanced healing response
time to complete healing of wound ([3]; 33 μg/mL fibrin gel, topical, one patient, wound about 2 cm^2): ≤ 4 weeks
time to complete healing of wound ([3]; 33 μg/mL fibrin gel, topical, third patient, deep wound down to the periost (1 cm^2)): 15 weeks
decrease in wound bed depth as well as surface area ([3]; 33 μg/mL fibrin gel, topical, two large wounds on one patient (up to 17 cm^2), after 8 weeks): 30-50%
healing versus standard treatment alone ([3]; fibrin gel treatment, doctors' assessment): strong enhancement of healing
Healing (% defect filled with bone) (sheep drill defect; Dose 60 μg/mL in fibrin matrix): 39.5%

dLNQEQVSPK(βA)FAKLAARLYRKA
incorporation of peptide into fibrin (fibrin gels): 8.7±0.2 moles of peptide per mole of fibrinogen
